In patent US20250361272A1, “HISTIDINE-BASED UNNATURAL AMINO ACID, ITS PRODUCTION AND USE” (priority 2024, published 2025):
Residues, ends and D or L forms follow the SMILES beside them.

Experiments:
in vitro = conditions: human, 30% human serum in RPMI medium
Protocol: The experiment was performed in RPMI medium with 30% human serum at 37° C. Aliquots of the solution were analysed by HPLC-MS and the relative content was determined using an internal standard (phenol). The experiment was performed in three independent experiments.

B. subtilis NCIB 3610 = assay: Fluorescence microscopy of B. subtilis stained with HADA (peptidoglycan synthesis); format: cell-based
Text: Scale bars represent 2 μm. BF are the bright light images.
Fluorescence microscopy of B. subtilis stained with HADA, showing newly synthesised peptidoglycan from control cells.

P. aeruginosa = format: cell-based
K. pneumoniae [1] = format: cell-based
human blood = assay: Haemolysis experiment with fresh blood from a healthy donor; format: cell-based
Protocol: (§1) FIGS. 3A and 3B show the viability of HCT116 cells in DMEM with 10% FBS and 1% penicillin/streptomycin (FIG. 3A). The haemolysis experiments were performed with fresh blood from a healthy donor. Both experiments were performed in three independent experiments.
(§2) This is therefore >65-fold higher than the minimum inhibitory concentration against B. subtilis. […] Consequently, the P14 peptide as an antibiotic offers a distinct concentration window for therapeutic use.
3) Haemolysis experiments using human blood from a healthy donor show a haemolytic concentration >50-fold above the minimum inhibitory concentration against B. subtilis.

A. baumannii [2] = assay: Infection model 2: mouse skin infection with A. baumannii; format: in vivo; conditions: A. baumannii infected mice, superficial abrasion
Protocol: (§3) The number of surviving bacterial colonies after treatment with peptide is shown.
Infection of the mice was induced by superficial abrasion and incubation with the bacterial culture.

E. coli = assay: MIC against ESKAPE pathogens in Mueller-Hinton medium; format: cell-based; conditions: Gram-negative
E. feacium = format: cell-based
A. baumannii [3] = format: cell-based
S. pneumoniae = format: cell-based
S. aureus = assay: MIC against ESKAPE pathogens in Mueller-Hinton medium; format: cell-based; conditions: Gram-positive
K. pneumoniae [4] = assay: Infection model 1: treatment of K. pneumoniae-infected A549 lung cells; format: cell-based; conditions: at 8 μM, surviving bacterial colonies
Protocol: as §3
The peptide P14 was tested as an antibiotic against the treatment of K. pneumoniae-infected A549 lung cells.

[5] = Viability of HCT116 cells (cytotoxicity); format: cell-based; conditions: human; HCT116 cells in DMEM with 10% FBS; read-out: cytotoxic concentration CC50
Protocol: as §1, §2

HCT116 cells = assay: Viability of HCT116 cells (cytotoxicity); format: cell-based; conditions: CC50 (HCT116) over MIC (B. subtilis)
Protocol: as §1, §2

E. cloacae = format: cell-based
Bacillus subtilis = assay: Minimum inhibitory concentration (MIC) in Mueller-Hinton medium; format: cell-based; conditions: relative to Com2
Protocol: The experiments were performed in Mueller-Hinton medium in three independent experiments.
Analogously to P14, these amino acids have been incorporated into the parental sequence of Com2 and were partially tested on their antimicrobial activity against Gram-positive Bacillus Subtilis 3610 NCIB.

SMILES | half-life (in vitro) | HADA staining of newly synthesised peptidoglycan (B. subtilis NCIB 3610) | MIC (P. aeruginosa) | MIC (K. pneumoniae [1]) | haemolytic concentration relative to the MIC value (human blood; HC50 over MIC (B. subtilis)) | haemolytic concentration HC50 (human blood; fresh blood from a healthy donor) | potency in mouse skin infection compared to polymyxin B (A. baumannii [2]) | activity in mouse skin infection compared to control peptide P3 (A. baumannii [2]; surviving bacterial colonies) | MIC (E. coli) | MIC (E. feacium) | MIC (A. baumannii [3]) | MIC (S. pneumoniae) | MIC (S. aureus) | inhibition of bacterial growth in infected A549 lung cells (K. pneumoniae [4]) | CC50 [5] | cytotoxic concentration relative to MIC against B. subtilis (HCT116 cells) | MIC (E. cloacae) | minimum inhibitory concentration (MIC) compared to the parent peptide (Com2) (Bacillus subtilis)
N=C(N)NCCC[C@H](NC(=O)[C@H](Cc1c[nH]c2ccccc12)NC(=O)[C@H](Cc1c[nH]c2ccccc12)NC(=O)[C@H](CCCNC(=N)N)NC(=O)[C@@H](N)CCCNC(=N)N)C(=O)N[C@@H](Cc1ccccc1)C(N)=O [Com2, H2N-RRWWRF-CONH2, reference compound] (H-RRWWRF-NH2) | ~24 min |  |  |  |  |  |  |  |  |  |  |  |  |  |  |  |  | 
CC(=O)Nc1ccc(C(=O)N[C@@H](CCCNC(=N)N)C(=O)N[C@@H](CCCNC(=N)N)C(=O)N[C@@H](Cc2c[n+](Cc3ccc4ccccc4c3)cn2Cc2ccc3ccccc3c2)C(=O)N[C@@H](Cc2c[n+](Cc3ccc4ccccc4c3)cn2Cc2ccc3ccccc3c2)C(=O)N[C@@H](CCCNC(=N)N)C(=O)N[C@@H](Cc2ccccc2)C(N)=O)cc1 [Peptide P14, Aba-RR-Hdn-Hdn-RF-CONH2] | > 840 min | inhibits bacterial polyglycan synthesis | 12.5 µM | 12.5 µM | > 50 fold | 38.62 ± 2.58 µM | can be compared with that of the commonly used polymyxin B | higher activity than the control peptide P3 | 25 µM | 0.8 µM | 6.3 µM | 2.2 µM | 1.6 µM | complete inhibition of bacterial growth | 50.4 ± 4.48 µM | > 65 fold | 25 µM | > 24 fold
CN[C@H](CC(C)C)C(=O)N[C@H]1C(=O)N[C@@H](CC(N)=O)C(=O)N[C@H]2C(=O)N[C@H]3C(=O)N[C@H](C(=O)N[C@H](C(=O)O)c4cc(O)cc(O)c4-c4cc3ccc4O)[C@H](O)c3ccc(c(Cl)c3)Oc3cc2cc(c3O[C@@H]2O[C@H](CO)[C@@H](O)[C@H](O)[C@H]2O[C@H]2C[C@](C)(N)[C@H](O)[C@H](C)O2)Oc2ccc(cc2Cl)[C@H]1O [vancomycin, reference compound] |  | no HADA binding to the cell periphery is visible |  |  |  |  |  |  |  |  |  |  |  |  |  |  |  | 
